Values of other authors as cited in patent US5118493A, “Composition having reduced nephrotoxocity comprising a fatty acid containing component and cyclosporine” (Brigham and Women's Hospital, priority 1991, dated 1992).

Tested on: rats treated with CSA

Cc1c(Cn2ccnc2)c2ccccc2n1CCC(=O)O [UK-38,485]
glomerular filtration rate (GFR): improved
urinary TxB2 levels: comparable to control levels
